Source: ChEMBL document CHEMBL1141727, “Isolation and cytotoxic evaluation of marine sponge-derived norterpene peroxides” (J Nat Prod, 1998)

Experiments:
Type in all cases: functional
[1] = system: MOLT-4; test: Growth inhibition of human MOLT4 cells
[2] = system: CX-1; test: Growth inhibition of human CX-1 cells assessed as zone units at 50 ug/disk by disk diffusion agar colony formation assay
[3] = system: OVCAR-8; test: Growth inhibition of human OVCAR8 cells
[4] = system: SR; test: Growth inhibition of human SR cells
[5] = system: IGROV-1; test: Growth inhibition of human IGROV1 cells
[6] = Growth inhibition of mouse M17/ADR cells assessed as zone units at 50 ug/disk by disk diffusion agar colony formation assay
[7] = system: SK-OV-3; test: Growth inhibition of human SKOV3 cells
[8] = system: SK-MEL-28; test: Growth inhibition of human SK-MEL-28 cells
[9] = system: M14; test: Growth inhibition of human M14 cells
[10] = system: DU-145; test: Growth inhibition of human DU145 cells
[11] = system: OVCAR-3; test: Growth inhibition of human OVCAR-3 cells
[12] = system: Malme-3M; test: Growth inhibition of human MALME-3M cells
[13] = system: NCI-H226; test: Growth inhibition of human NCI-H226 cells
[14] = system: SF-539; test: Growth inhibition of human SF539 cells
[15] = system: NCI-H23; test: Growth inhibition of human NCI-H23 cells
[16] = system: MDA-N; test: Growth inhibition of human MDA-N cells
[17] = system: NCI-H460; test: Growth inhibition of human NCI-H460 cells
[18] = system: NCI-H322M; test: Growth inhibition of human NCI-H322M cells
[19] = system: MDA-MB-231; test: Growth inhibition of human MDA-MB-231 cells
[20] = system: U-251; test: Growth inhibition of human U251 cells
[21] = system: UO-31; test: Growth inhibition of human UO31 cells
[22] = system: BT-549; test: Growth inhibition of human BT549 cells
[23] = system: HCT-15; test: Growth inhibition of human HCT15 cells
[24] = system: KM12; test: Growth inhibition of human KM12 cells
[25] = system: 786-0; test: Growth inhibition of human 786-0 cells
[26] = system: NCI-H522; test: Growth inhibition of human NCI-H522 cells
[27] = system: ACHN; test: Growth inhibition of human ACHN cells
[28] = system: CCRF-CEM; test: Growth inhibition of human CCRF-CEM cells
[29] = system: HL-60(TB); test: Growth inhibition of human HL-60(TB) cells
[30] = Growth inhibition of human Hs 578T cells
[31] = system: HCT-116; test: Growth inhibition of human HCT116 cells
[32] = system: T47D; test: Growth inhibition of human T47D cells
[33] = system: A549; test: Growth inhibition of human A549 cells
[34] = system: HT-29; test: Growth inhibition of human HT-29 cells
[35] = system: SW-620; test: Growth inhibition of human SW620 cells
[36] = system: SK-MEL-2; test: Growth inhibition of human SK-MEL-2 cells
[37] = Growth inhibition of human MCF7/ADR resistant cells; details: NCI/ADR-RES
[38] = system: MDA-MB-435; test: Growth inhibition of human MDA-MB-435 cells
[39] = system: UACC-257; test: Growth inhibition of human UACC257 cells
[40] = system: A498; test: Growth inhibition of human A498 cells
[41] = system: UACC-62; test: Growth inhibition of human UACC62 cells
[42] = system: SNB-75; test: Growth inhibition of human SNB75 cells
[43] = system: OVCAR-4; test: Growth inhibition of human OVCAR4 cells
[44] = system: SN12C; test: Growth inhibition of human SN12C cells
[45] = system: SK-MEL-5; test: Growth inhibition of human SK-MEL-5 cells
[46] = system: COLO 205; test: Growth inhibition of human COLO205 cells
[47] = system: L1210; test: Growth inhibition of mouse L1210 cells assessed as zone units at 50 ug/disk by disk diffusion agar colony formation assay
[48] = system: CAKI-1; test: Growth inhibition of human Caki1 cells
[49] = system: MCF7; test: Growth inhibition of human MCF7 cells
[50] = system: PO3; test: Growth inhibition of mouse PO3 cells assessed as zone units at 50 ug/disk by disk diffusion agar colony formation assay
[51] = system: HCC 2998; test: Growth inhibition of human HCC2998 cells
[52] = Growth inhibition of human […] cells
[53] = system: SF-295; test: Growth inhibition of human SF295 cells
[54] = system: HOP-92; test: Growth inhibition of human HOP92 cells
[55] = system: RXF 393; test: Growth inhibition of human […] cells
[56] = system: P388; test: Growth inhibition of mouse P388 cells assessed as zone units at 50 ug/disk by disk diffusion agar colony formation assay
[57] = system: HOP-62; test: Growth inhibition of human HOP62 cells
[58] = system: OVCAR-5; test: Growth inhibition of human OVCAR5 cells
[59] = system: EKVX; test: Growth inhibition of human EKVX cells
[60] = system: PC-3; test: Growth inhibition of human PC3 cells
[61] = system: MC-38; test: Growth inhibition of mouse C38 cells assessed as zone units at 50 ug/disk by disk diffusion agar colony formation assay

C=C1CCC[C@H]2[C@](C)(CCC(C)=O)[C@@H](C)CC[C@]12C
GI50 [1]: > 15000 nM
Activity [2]: 100 Zone units
GI50 [3]: > 15000 nM
GI50 [4]: > 15000 nM
GI50 [5]: > 15000 nM
Activity [6]: 0 Zone units
GI50 [7]: > 15000 nM
GI50 [8]: > 15000 nM
GI50 [9]: > 15000 nM
GI50 [10]: > 15000 nM
GI50 [11]: > 15000 nM
GI50 [12]: > 15000 nM
GI50 [13]: > 15000 nM
GI50 [14]: > 15000 nM
GI50 [15]: > 15000 nM
GI50 [16]: > 15000 nM
GI50 [17]: > 15000 nM
GI50 [18]: > 15000 nM
GI50 [19]: > 15000 nM
GI50 [20]: > 15000 nM
GI50 [21]: > 15000 nM
GI50 [22]: > 15000 nM
GI50 [23]: > 15000 nM
GI50 [24]: > 15000 nM
GI50 [25]: > 15000 nM
GI50 [26]: > 15000 nM
GI50 [27]: > 15000 nM
GI50 [28]: > 15000 nM
GI50 [29]: > 15000 nM
GI50 [30]: > 15000 nM
GI50 [31]: > 15000 nM
GI50 [32]: > 15000 nM
GI50 [33]: > 15000 nM
GI50 [34]: > 15000 nM
GI50 [35]: > 15000 nM
GI50 [36]: > 15000 nM
GI50 [37]: > 15000 nM
GI50 [38]: > 15000 nM
GI50 [39]: > 15000 nM
GI50 [40]: > 15000 nM
GI50 [41]: > 15000 nM
GI50 [42]: 3020 nM
GI50 [43]: > 15000 nM
GI50 [44]: > 15000 nM
GI50 [45]: > 15000 nM
GI50 [46]: > 15000 nM
Activity [47]: 0 Zone units
GI50 [48]: > 15000 nM
GI50 [49]: > 15000 nM
Activity [50]: 0 Zone units
GI50 [51]: > 15000 nM
GI50 [52]: > 15000 nM
GI50 [53]: > 15000 nM
GI50 [54]: > 15000 nM
GI50 [55]: > 15000 nM
Activity [56]: 0 Zone units
GI50 [57]: > 15000 nM
GI50 [58]: > 15000 nM
GI50 [59]: > 15000 nM

C=C1CCC[C@H]2[C@](C)(CC[C@]3(C)CC[C@H]([C@@H](C)C(=O)O)OO3)[C@@H](C)CC[C@]12C [SIGMOSCEPTRELLIN A]
GI50 [1]: 980 nM
GI50 [60]: 1690 nM
Activity [2]: 220 Zone units
GI50 [3]: 1570 nM
GI50 [4]: 1130 nM
GI50 [5]: 120 nM
Activity [6]: 290 Zone units
GI50 [7]: 1570 nM
GI50 [8]: 3310 nM
GI50 [9]: 3290 nM
GI50 [11]: 1850 nM
GI50 [12]: 1200 nM
GI50 [13]: 110 nM
GI50 [14]: 1610 nM
GI50 [15]: 2020 nM
GI50 [16]: 1830 nM
GI50 [17]: 1590 nM
GI50 [18]: 1910 nM
GI50 [19]: 3710 nM
GI50 [20]: 1730 nM
GI50 [21]: 1220 nM
GI50 [22]: 1810 nM
GI50 [23]: 1890 nM
GI50 [24]: 940 nM
GI50 [25]: 610 nM
GI50 [26]: 120 nM
GI50 [27]: 1380 nM
GI50 [28]: 200 nM
GI50 [29]: 140 nM
GI50 [30]: 1080 nM
GI50 [31]: 1800 nM
GI50 [32]: 2000 nM
GI50 [33]: 1450 nM
GI50 [34]: 1570 nM
GI50 [35]: 1570 nM
GI50 [36]: 2170 nM
GI50 [38]: 1980 nM
GI50 [39]: 3680 nM
GI50 [40]: 1930 nM
GI50 [41]: 2320 nM
GI50 [42]: 1080 nM
GI50 [43]: 1890 nM
Activity [61]: 180 Zone units
GI50 [44]: 1780 nM
GI50 [45]: 2680 nM
GI50 [46]: 2180 nM
Activity [47]: 230 Zone units
GI50 [48]: 1760 nM
GI50 [49]: 1780 nM
GI50 [51]: 1550 nM
GI50 [52]: 1710 nM
GI50 [53]: 1460 nM
GI50 [54]: 290 nM
GI50 [55]: 1220 nM
Activity [56]: 230 Zone units
GI50 [57]: 1050 nM
GI50 [58]: 1740 nM
GI50 [59]: 1170 nM
